Laboratory results taken from paper PMC3950950, “Fluorescent sensors for activity and regulation of the nitrate transceptor CHL1/NRT1.1 and oligopeptide transporters” (eLife, 2014).
Residues, ends and D or L forms follow the SMILES beside them.

Assays:
Assay type in all cases: cell-based
[1] = molecular target: T1, CHL1/NRT1.1/NPF6.3 (Arabidopsis thaliana, UniProt Q05085); experiment: […]-nitrate uptake and TEVC currents in Xenopus oocytes; conditions: 0.25 and 10 mM K15NO3, pH 5.5 (uptake); 0.5 and 10 mM CsNO3 (TEVC)
T1 construct: CHL1 cDNA without fluorescent proteins in pOO2-GW; cRNA-injected Xenopus laevis oocytes
T1 sequence (Q05085 1-590): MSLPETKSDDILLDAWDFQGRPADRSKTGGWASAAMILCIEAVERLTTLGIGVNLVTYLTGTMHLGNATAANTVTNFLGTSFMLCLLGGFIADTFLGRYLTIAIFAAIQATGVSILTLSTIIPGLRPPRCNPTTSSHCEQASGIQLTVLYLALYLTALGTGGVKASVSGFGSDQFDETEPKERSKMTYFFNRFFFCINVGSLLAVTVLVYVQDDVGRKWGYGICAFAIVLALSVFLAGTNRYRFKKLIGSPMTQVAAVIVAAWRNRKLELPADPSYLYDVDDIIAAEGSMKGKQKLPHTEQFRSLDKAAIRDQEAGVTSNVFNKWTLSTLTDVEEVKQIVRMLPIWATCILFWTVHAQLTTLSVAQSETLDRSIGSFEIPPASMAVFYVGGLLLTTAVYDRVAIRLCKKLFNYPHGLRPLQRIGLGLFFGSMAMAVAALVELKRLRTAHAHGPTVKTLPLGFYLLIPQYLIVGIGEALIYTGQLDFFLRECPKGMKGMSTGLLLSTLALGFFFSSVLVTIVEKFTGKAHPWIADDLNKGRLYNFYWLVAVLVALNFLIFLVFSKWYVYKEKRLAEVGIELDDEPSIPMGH

[2] = molecular target: T2, NiTrac1 (CHL1/NRT1.1/NPF6.3 fusion) (Arabidopsis thaliana, UniProt Q05085); experiment: fluorescence response (donor quenching) of sensor in yeast, plate reader; conditions: 50 mM MES pH 5.5; high-affinity phase of biphasic response (low-affinity phase is a second site); excitation 428 nm
T2 construct: full-length ORF between N-terminal Aphrodite t9 (yellow FP) and C-terminal mCerulean (pDRFlip30); expressed in yeast BJ5465; intact cells
T2 sequence (Q05085 1-590): T1 sequence (Q05085 1-590)

[3] = molecular target: T3, PepTrac1 (PTR1 fusion) (Arabidopsis thaliana, UniProt Q9M390); experiment: fluorescence response (donor quenching) of sensor in yeast; conditions: 0.5 mM diglycine; 50 mM MES pH 5.5; excitation 428 nm
T3 construct: gene NPF8.1; full-length ORF between N-terminal Aphrodite and C-terminal mCerulean; expressed in yeast; intact cells
T3 sequence (Q9M390 1-570): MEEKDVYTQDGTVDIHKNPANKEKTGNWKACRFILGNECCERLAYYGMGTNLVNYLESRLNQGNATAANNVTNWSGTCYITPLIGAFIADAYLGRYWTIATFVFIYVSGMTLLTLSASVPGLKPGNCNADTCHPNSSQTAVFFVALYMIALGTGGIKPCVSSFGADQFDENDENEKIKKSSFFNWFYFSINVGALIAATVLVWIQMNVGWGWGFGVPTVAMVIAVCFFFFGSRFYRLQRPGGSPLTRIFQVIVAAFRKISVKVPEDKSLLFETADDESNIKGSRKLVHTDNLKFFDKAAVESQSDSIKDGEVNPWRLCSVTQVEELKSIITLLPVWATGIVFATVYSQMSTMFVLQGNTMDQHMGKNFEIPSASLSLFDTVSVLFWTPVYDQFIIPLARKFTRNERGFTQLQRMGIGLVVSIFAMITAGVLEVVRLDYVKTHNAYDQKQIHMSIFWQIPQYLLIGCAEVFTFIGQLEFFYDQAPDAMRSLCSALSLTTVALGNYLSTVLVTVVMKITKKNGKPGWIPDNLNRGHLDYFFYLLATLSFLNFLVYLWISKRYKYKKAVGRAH

[4] = molecular target: T4, PepTrac5 (PTR5 fusion) (Arabidopsis thaliana, UniProt Q9LFB8); experiment: as above; conditions: 0.5 mM diglycine; 50 mM MES pH 5.5; excitation 428 nm
T4 construct: gene NPF8.2; full-length ORF between N-terminal Aphrodite and C-terminal mCerulean; expressed in yeast; intact cells
T4 sequence (Q9LFB8 1-570): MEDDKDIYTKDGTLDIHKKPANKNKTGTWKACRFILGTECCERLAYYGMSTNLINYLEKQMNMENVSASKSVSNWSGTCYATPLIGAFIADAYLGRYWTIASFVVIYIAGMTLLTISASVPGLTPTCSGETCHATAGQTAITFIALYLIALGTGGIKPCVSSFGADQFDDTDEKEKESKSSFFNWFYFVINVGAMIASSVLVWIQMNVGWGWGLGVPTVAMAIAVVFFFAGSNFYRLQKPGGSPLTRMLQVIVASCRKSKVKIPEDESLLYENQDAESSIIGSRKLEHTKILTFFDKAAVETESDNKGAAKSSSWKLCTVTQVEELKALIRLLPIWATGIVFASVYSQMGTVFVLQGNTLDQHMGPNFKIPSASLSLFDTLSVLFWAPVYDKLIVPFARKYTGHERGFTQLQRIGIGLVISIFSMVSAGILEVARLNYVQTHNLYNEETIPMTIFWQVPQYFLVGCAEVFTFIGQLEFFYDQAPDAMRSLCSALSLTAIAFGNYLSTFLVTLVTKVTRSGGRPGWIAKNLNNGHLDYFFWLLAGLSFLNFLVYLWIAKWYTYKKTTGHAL

[5] = molecular target: T5, PepTrac2 (PTR2 fusion) (Arabidopsis thaliana, UniProt P46032); experiment: as above; conditions: 0.5 mM diglycine; 50 mM MES pH 5.5; excitation 428 nm
T5 construct: gene NPF8.3; full-length ORF between N-terminal Aphrodite and C-terminal mCerulean; expressed in yeast; intact cells
T5 sequence (P46032 1-585): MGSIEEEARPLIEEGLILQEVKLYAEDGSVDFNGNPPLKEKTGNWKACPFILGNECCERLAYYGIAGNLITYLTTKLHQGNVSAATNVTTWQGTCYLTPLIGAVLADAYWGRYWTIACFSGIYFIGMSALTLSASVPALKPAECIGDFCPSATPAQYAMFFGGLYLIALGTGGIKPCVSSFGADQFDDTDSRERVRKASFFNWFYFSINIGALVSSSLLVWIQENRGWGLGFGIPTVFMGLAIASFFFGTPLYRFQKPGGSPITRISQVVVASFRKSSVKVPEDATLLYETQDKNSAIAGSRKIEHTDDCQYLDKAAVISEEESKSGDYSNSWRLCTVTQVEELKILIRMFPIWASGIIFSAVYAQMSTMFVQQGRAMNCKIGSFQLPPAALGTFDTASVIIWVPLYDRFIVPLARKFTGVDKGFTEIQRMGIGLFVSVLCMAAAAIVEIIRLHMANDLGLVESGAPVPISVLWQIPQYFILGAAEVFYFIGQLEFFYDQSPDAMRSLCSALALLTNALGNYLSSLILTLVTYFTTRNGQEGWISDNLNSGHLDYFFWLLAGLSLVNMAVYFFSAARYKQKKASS

[6] = molecular target: T6, PepTrac4 (PTR4 fusion) (Arabidopsis thaliana, UniProt Q84WG0); experiment: FRET ratio change of sensor in yeast; conditions: 0.5 mM diglycine; 50 mM MES pH 5.5; excitation 428 nm
T6 construct: gene NPF8.4; full-length ORF between N-terminal Aphrodite and C-terminal mCerulean; expressed in yeast; intact cells
T6 sequence (Q84WG0 1-545): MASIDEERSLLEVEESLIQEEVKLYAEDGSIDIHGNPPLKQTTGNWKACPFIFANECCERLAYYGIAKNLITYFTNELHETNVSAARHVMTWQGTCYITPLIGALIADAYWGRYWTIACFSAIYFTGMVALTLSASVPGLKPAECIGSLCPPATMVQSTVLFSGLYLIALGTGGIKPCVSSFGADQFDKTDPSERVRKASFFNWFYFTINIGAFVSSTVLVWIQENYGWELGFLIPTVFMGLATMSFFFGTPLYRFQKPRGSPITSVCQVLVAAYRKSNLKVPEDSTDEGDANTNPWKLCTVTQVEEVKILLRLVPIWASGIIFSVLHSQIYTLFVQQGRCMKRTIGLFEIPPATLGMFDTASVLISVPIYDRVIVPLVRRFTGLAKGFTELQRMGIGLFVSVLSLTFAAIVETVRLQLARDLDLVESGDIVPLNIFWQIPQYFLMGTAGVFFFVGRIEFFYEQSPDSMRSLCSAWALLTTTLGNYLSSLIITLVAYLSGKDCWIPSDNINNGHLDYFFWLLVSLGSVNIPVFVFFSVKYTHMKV

Row | Km [2] | SMILES | 15N-nitrate uptake and TEVC currents in Xenopus oocytes [1] | fluorescence response (donor quenching) of sensor in yeast [3] | fluorescence response (donor quenching) of sensor in yeast [4] | fluorescence response (donor quenching) of sensor in yeast [5] | FRET ratio change of sensor in yeast [6]
1 | ~ 75.1 ± 21 μM | O=[N+]([O-])O [nitrate] | In response to nitrate addition, CHL1 expressing oocytes showed an inward current | – | – | – | –
2 | – | NCC(=O)NCC(=O)O [diglycine] (H-Gly-Gly-OH) | – | PepTrac1, PepTrac2, and PepTrac5 sensors all responded with donor quenching | PepTrac1, PepTrac2, and PepTrac5 sensors all responded with donor quenching | PepTrac1, PepTrac2, and PepTrac5 sensors all responded with donor quenching | PepTrac4 responded to substrate addition with a ratio change
